Results reported in patent US9975861B2, “Dual inhibitor compounds for use in the treatment of neurodegenerative disorders and alzheimer's disease” (FONDAZIONE ISTITUTO ITALIANO DI TECNOLOGIA, priority 2014, dated 2018).

Legend:
[1] = system: neurosphere cultures of primary rat neural stem cells; test: Neurosphere cultures, immunocytochemistry for neural markers; type: cell-based; conditions: 10 μM during a week; compared to control (FIG. 3)
Excerpt: Neurosphere (NS) cultures were derived from the hippocampus of adult rats and induced to proliferate using established passaging methods to achieve optimal cellular expansion according to published protocols [Ferron, S. R.; Andreu-Agullo, C.; Mira, H.; Sanchez, P.; Marques-Torrejon, M. A.; Farinas, I. A combined ex/in vivo assay to detect effects of exogenously added factors in neural stem cells. Nature Protoc. 2007, 2, 849-859]. Rats were decapitated, brains removed, and the hippocampus dissected as described [Morales-Garcia, J. A.; Luna-Medina, R.; Alfaro-Cervello, C.; Cortes-Canteli, M.; Santos, A.; Garcia-Verdugo, J. M.; Perez-Castillo, A. Peroxisome proliferator-activated receptor gamma ligands regulate neural stem cell proliferation and differentiation in vitro and in vivo. Glia 2011, 59, 293-307]. Briefly, cells were seeded into 12-well dishes and cultured in DMEM/F12 (1:1, Invitrogen) containing 10 ng/mL epidermal growth factor (EGF, Peprotech, London, UK), 10 ng/mL fibroblast growth factor (FGF, Peprotech), and B27 medium (Gibco). After 3 days in culture, NS were cultivated in the presence or absence of the indicated compounds (10 μM) during a week. After that, NS from 10-day old cultures were plated for 72 hours onto 100 μg/mL poly-L-lysine-coated coverslips in the absence of exogenous growth factors.
Neurogenesis is a crucial property for new AD-modifying drugs, since it confers the potential to increase endogenous regeneration as a repair mechanism in the damaged brain, and reduce neuronal loss and degeneration. Considering that GSK-3β inhibition is reported to regulate and increase neurogenesis [Lange, C.; Mix, E.; Frahm, J.; Glass, A.; Muller, J.; Schmitt, O.; Schmole, A. C.; Klemm, K.; Ortinau, S.; Hubner, R.; Frech, M. J.; Wree, A.; Rolfs, A. Small molecule GSK-3 inhibitors increase neurogenesis of human neural progenitor cells. Neurosci. […]

[2] = target: β-secretase (BACE-1) (Homo sapiens (Human), UniProt P56817); test: Inhibition of BACE-1 (fluorogenic APP-mimicking peptide substrate); conditions: BACE-1 IC50 (μM), substrate 3 μM, 1 hour pre-incubation at rt, 15 minutes at 37° C.
Protocol: β-secretase (BACE-1, Sigma-Aldrich) inhibition studies were performed by employing a peptide mimicking APP sequence as substrate (Methoxycoumarin-[sequence]dinitrophenyl, M-2420, Bachem, Germany). The following procedure was employed: 5 μL of test compounds (or DMSO, if preparing a control well) were pre-incubated with 175 μL of enzyme (in 20 mM sodium acetate containing 3-[(3-Cholamidopropyl)dimethylammonio]-1-propanesulfonate (CHAPS) 0.1% w/v) for 1 hour at rt. The substrate (3 μM, final concentration) was then added and left to react for 15 minutes at 37° C. The fluorescence signal was read at λem=405 nm (λexc=320 nm) using a Fluoroskan Ascent. […] The fluorescence intensities with and without inhibitor were compared and the percent inhibition due to the presence of test compounds was calculated. The background signal was measured in control wells containing all the reagents, except BACE-1 and subtracted. The % inhibition due to the presence of increasing test compound concentration was calculated by the following expression: 100−(IFi/IFo×100) where IFi and IFo are the fluorescence intensities obtained for BACE-1 in the presence and in the absence of inhibitor, respectively. […] The linear regression parameters were determined and the IC50 extrapolated (GraphPad Prism 4.0, GraphPad Software Inc.).

[3] = target: Human recombinant GSK-3β (Homo sapiens (Human), UniProt P49841); test: Inhibition of GSK-3β (Kinase-Glo luminescent kinase assay); type: biochemical; conditions: 1 μM ATP, 25 μM substrate, 30 minutes at 30° C.
Protocol: Human recombinant GSK-3β was purchased from Millipore (Millipore Iberica S.A.U.) The prephosphorylated polypeptide substrate was purchased from Millipore (Millipore Iberica SAU). Kinase-Glo Luminescent Kinase Assay was obtained from Promega (Promega Biotech Iberica, SL). ATP and all other reagents were from Sigma-Aldrich. Assay buffer contained 50 mM 4-(2-hydroxyethyl)-1-piperazineethanesulfonic acid (HEPES) (pH 7.5), 1 mM ethylenediaminetetraacetic acid (EDTA), 1 mM ethylene glycol tetraacetic acid (EGTA), and 15 mM magnesium acetate. The method developed by Baki was followed [Baki et al. Assay and Drug Development Technologies 2007, 5(1),75-83] to analyze the inhibition of GSK-3β. Kinase-Glo assays were performed in assay buffer using white 96-well plates. In a typical assay, 10 μL (10 μM) of test compound (dissolved in DMSO at 1 mM concentration and diluted in advance in assay buffer to the desired concentration) and 10 μL (20 ng) of enzyme were added to each well followed by 20 μL of assay buffer containing 25 μM substrate and 1 μM adenosine triphosphate (ATP). […] After a 30 minutes incubation at 30° C., the enzymatic reaction was stopped with 40 μL of Kinase-Glo reagent. Glow-type luminescence was recorded after 10 minutes using a Fluoroskan Ascent multimode reader.
The activity is proportional to the difference of the total and consumed ATP.

[4] = system: primary astrocytes and microglial cells; test: Nitrites measurement (Griess reaction) in LPS-stimulated primary glial cells; type: cell-based, rat; conditions: compounds 10 μM for 1 hour, then LPS 10 μg/mL for 24 hours; astrocytes and microglia; potency compared with 6-amino triazinones A-C (FIGS. 2A, 2B)
Protocol: Astrocytes were prepared from neonatal (P2) rat cerebral cortex, as previously described by Luna-Medina et al. [Luna-Medina, R.; Cortes-Canteli, M.; Alonso, M.; Santos, A.; Martinez, A.; Perez-Castillo, A. Regulation of inflammatory response in neural cells in vitro by thiadiazolidinones derivatives through peroxisome proliferator-activated receptor gamma activation. J. Biol. Chem. 2005, 280, 21453-21462].
Briefly, after removal of the meninges, the cerebral cortex was dissected, dissociated, and incubated with 0.25% trypsin/EDTA at 37° C. for 1 hour. After centrifugation, the pellet was washed 3 times with Hank's balanced salt solution (HBSS) (Gibco) and the cells were placed on noncoated flasks and maintained in HAMS/Dulbecco's modified eagle's medium (DMEM) (1:1) medium containing 10% of fetal bovine serum (FBS). After 15 days, the flasks were agitated on an orbital shaker for 4 hours at 240 rpm at 37° C., the supernatant was collected, centrifuged, and the cellular pellet containing the microglial cells resuspended in complete medium (HAMS/DMEM (1:1) containing 10% FBS) and seeded on uncoated 96-well plates. Cells were allowed to adhere for 2 hours, and the medium was removed to eliminate nonadherent oligodendrocytes. New fresh medium containing 10 ng/mL of granulocyte-macrophage colony-stimulating factor (GM-CSF) was added. The remaining astroglial cells adhered on the flasks were then trypsinized, collected, centrifugated, and plated onto 96-well plates with complete medium. The purity of cultures obtained by this procedure was >98% as determined by immunofluorescence with the OX42 (microglial marker) and the glial fibrillary acidic protein (GFAP, astroglial marker) antibodies.
The potential anti-inflammatory activity of the selected compounds was tested by evaluating the production of nitrites from primary cultured glial cells. Primary cultures of astrocytes and microglia were incubated with the selected compounds (10 μM) for 1 hour, and then cells were cultured for another 24 hours with a potent inflammatory agent, such as lipopolysaccharide (LPS) (10 μg/mL). LPS is able to induce nitrite production and accumulation in the culture medium, which was assayed by the standard Griess reaction. Supernatants were collected from the media and mixed with an equal volume of Griess reagent (Sigma). Samples were then incubated at rt for 15 minutes and absorbance read using a plate reader at 492/540 nm.

Sequence of Human recombinant GSK-3β (P49841 whole entry): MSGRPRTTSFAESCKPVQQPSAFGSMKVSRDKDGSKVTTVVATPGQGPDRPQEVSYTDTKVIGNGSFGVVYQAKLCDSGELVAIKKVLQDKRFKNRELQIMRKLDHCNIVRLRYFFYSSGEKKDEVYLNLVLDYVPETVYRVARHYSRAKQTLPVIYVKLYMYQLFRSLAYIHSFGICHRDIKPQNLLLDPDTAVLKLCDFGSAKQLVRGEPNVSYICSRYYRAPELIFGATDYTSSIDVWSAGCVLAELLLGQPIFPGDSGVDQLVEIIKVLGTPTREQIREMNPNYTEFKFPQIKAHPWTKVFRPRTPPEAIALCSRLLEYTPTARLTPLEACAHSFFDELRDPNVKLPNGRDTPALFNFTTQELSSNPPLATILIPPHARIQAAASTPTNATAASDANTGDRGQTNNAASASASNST
Sequence of β-secretase (BACE-1) (P56817 46-501): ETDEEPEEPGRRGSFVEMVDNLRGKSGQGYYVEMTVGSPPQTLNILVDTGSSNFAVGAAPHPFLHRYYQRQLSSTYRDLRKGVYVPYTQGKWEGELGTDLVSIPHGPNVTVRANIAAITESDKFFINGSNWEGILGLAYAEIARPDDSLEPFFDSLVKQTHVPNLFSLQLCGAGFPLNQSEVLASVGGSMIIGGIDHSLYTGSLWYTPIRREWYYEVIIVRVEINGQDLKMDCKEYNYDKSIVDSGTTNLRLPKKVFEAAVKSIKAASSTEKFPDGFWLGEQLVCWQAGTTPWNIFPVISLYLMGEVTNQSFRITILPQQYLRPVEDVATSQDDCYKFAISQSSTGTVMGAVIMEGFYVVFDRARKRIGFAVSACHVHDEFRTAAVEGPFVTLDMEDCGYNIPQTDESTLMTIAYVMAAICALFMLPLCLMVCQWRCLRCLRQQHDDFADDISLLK

| IC50 [2] | IC50 [3] | Structure (SMILES) | number of MAP-2 positive cells (mature neuronal marker) [1] | reduction of LPS-induced nitrite production [4] |
| --- | --- | --- | --- | --- |
| – | – | NC1=NC(c2ccc(F)cc2)NC(=O)N1 (centres unmarked) [Compound A, reference compound] | only a marginal increase | – |
| 50.3 ± 6.61 µM | 40.7 ± 2.7 µM | CCNC1=NC(c2ccccc2C)NC(=O)N1 (centres unmarked) [Example 2, 6-(ethylamino)-4-(o-tolyl)-3,4-dihydro-1,3,5-triazin-2(1H)-one] | – | – |
| – | 6.93 ± 0.14 µM | O=C1NC(Nc2ccccc2)=NC(c2ccc(F)cc2)N1 (centres unmarked) [Example 9, 4-(4-fluorophenyl)-6-(phenylamino)-3,4-dihydro-1,3,5-triazin-2(1H)-one] | – | higher potency |
